Where “and” joins values, the source holds several entries; their conditions need not be identical. Equal entries are not always repeated.
How the values were obtained:
U87MG = test: WST-1 proliferation assay, U87MG; format: cell-based, human; settings: Homo sapiens, U-87 MG
Protocol: (§1) AP-121 was prepared as 5 mM stock solution in distilled sterile water, Temozolomide (TMZ) (Haorui Pharma-Chem, Inc., Edison, N.J.) was prepared as 100 mM in sterile filtrated DMSO; Adriamycin (ADR) (Sigma) was prepared as 1 mM in distilled sterile water; Camptothecin (CTP) (Sigma) was prepared as 10 mM solution in 0.1 N NaOH; Tarceva (Proteinkinase, Germany) was prepared as 5 mM solution in sterile DMSO. All compound stocks were kept at −20° C. 2000 cells were plated in each well of 96-well flat bottom plates, and incubated overnight at 37 °C in 5% CO2. The growth of plated cells was measured by adding […] of WST-1 reagent (Roche Applied Sciences, Germany) to 3 control wells and measuring the absorbance at 650 nm and at 450 nm, respectively, with a SpectraMax250 plate reader. […] After this incubation, VVST-1 reagent was added to the wells and OD650-OD450 values were calculated as before. six wells were assayed for each conditions and standard deviation was determined: all experiments were performed at least three times independently. […] Six different concentrations of each drug were used in combinations index measurements and compared to +/− cells, and compared to controls without compound.

T98G = test: WST-1 proliferation assay, T98G; format: cell-based; settings: Homo sapiens
Protocol: as §1

LN-229 = test: WST-1 proliferation assay, LN-229; format: cell-based; settings: Homo sapiens
Protocol: (§2) 2000 cells were plated in each well of 96-well flat bottom plates, and incubated overnight at 37 °C in 5% CO2. The growth of plated cells was measured by adding […] of WST-1 reagent (Roche Applied Sciences, Germany) to 3 control wells and measuring the absorbance at 650 nm and at 450 nm, respectively, with a SpectraMax250 plate reader. If the OD650-OD450 values were above 0.5, the remainder of the plate was used for incubation with AP-121, other pharmacological agents or solvent control for 96 hours.
(§3) After this incubation, VVST-1 reagent was added to the wells and OD650-OD450 values were calculated as before. six wells were assayed for each conditions and standard deviation was determined: all experiments were performed at least three times independently. After elucidation of individual IC50 values for each compound, the simultaneous combination treatment of AP-121 and the chemotherapeutic agent at their IC50 ratio was performed; combination index (CI) was determined by Calcusyn software package (Biosoft, Ferguson, Mo.). Data were evaluated by calculating the means of the combination index (CI), where a CI of <0.3 indicates a strong synergistic effect, 0.3<CI<0.7 a synergistic effect, 0.7<CI<0.9 moderate synergy, 0.9<CI<1 additive effect and CI>1 antagonistic effect, respectively.
For the AP-121 cell proliferation drug combination measurements, the ED50 was determined for each drug. Six different concentrations of each drug were used in combinations index measurements and compared to +/− cells, and compared to controls without compound. Each combination was repeated 6 times at 2 different time points (24 and 96 hours), each of the above experiments was repeated 3 times to obtain valid results.

A172 = test: WST-1 proliferation assay, A172; format: cell-based, human; settings: Homo sapiens, A 172
Protocol: as §1

LN-18 = test: WST-1 proliferation assay, LN-18; format: cell-based; settings: Homo sapiens
Protocol: (§4) 2000 cells were plated in each well of 96-well flat bottom plates, and incubated overnight at 37 °C in 5% CO2. The growth of plated cells was measured by adding […] of WST-1 reagent (Roche Applied Sciences, Germany) to 3 control wells and measuring the absorbance at 650 nm and at 450 nm, respectively, with a SpectraMax250 plate reader. […] After this incubation, VVST-1 reagent was added to the wells and OD650-OD450 values were calculated as before. six wells were assayed for each conditions and standard deviation was determined: all experiments were performed at least three times independently. […] Six different concentrations of each drug were used in combinations index measurements and compared to +/− cells, and compared to controls without compound.

U118MG = test: WST-1 proliferation assay, U118MG; format: cell-based, human; settings: Homo sapiens, U-118-MG
Protocol: as §1, with “compound. Each combination was repeated 6 times at 2 different time points (24 and 96 hours), each of the above experiments was repeated 3 times to obtain valid results.” for “compound.”

HCC827 (FAS positive) = test: WST-1 proliferation assay, HCC827; format: cell-based, human; settings: single agent, per experiment line
Protocol: as §4, with “DDP and GMZ” for “Six different concentrations of each drug”, “both purchased from Sigma-aldrich Corp., St. Louis, Mo., USA. The following cell lines were used: A549 (FAS negative), NCI-H460 (FAS positive),” for “used in combinations index measurements”, “HCC827 (FAS positive), all obtained from the ATTC, Rockville, Md., USA.” for “compared to +/− cells, and compared to controls without compound.”

NCI-H460 (FAS positive) = test: WST-1 proliferation assay, NCI-H460; format: cell-based, human; settings: NCI-H460; single agent, per experiment line
Protocol: as §4, with “DDP and GMZ” for “Six different concentrations of each drug”, “both purchased from Sigma-aldrich Corp., St. Louis, Mo., USA. The following cell lines were used: A549 (FAS negative), NCI-H460 (FAS positive),” for “used in combinations index measurements”, “HCC827 (FAS positive), all obtained from the ATTC, Rockville, Md., USA.” for “compared to +/− cells, and compared to controls without compound.”

A431 = settings: mean ± SD from three independent experiments, read-out: ED50 values for induction of apoptosis; cited from earlier work
HeLa = settings: mean ± SD from three independent experiments, read-out: ED50 values for induction of apoptosis; cited from earlier work
LNCaP cells = test: flow cytometric analysis of annexin V-PE positive / 7-AAD negative LNCaP cells; format: cell-based, human; settings: AD + R1881, no CHEM
Protocol: (§5) In a further approach, 10 μM 1-O-octadecyl-2-O-methyl-glycero-3-phosphocholine (final concentration; “CHEM”) and (ionizing) radiation (5 Gray units; “RT”) were administered simultaneously to the LNCaP cells but the subsequent incubation period was extended to 24 hours. Apoptosis was measured using the Apo-ONE™ Homogenous Caspase-3/7 Assay as described above and expressed as relative fluorescence units (RFLU). The percentage of apoptotic cells was determined by flow cytometric analysis of annexin V-PE positive-stained and 7-AAD (7-Amino ActinomycinD) negative-stained cells (both purchased from BD Biosciences, San Jose, Calif., USA) according to established standard protocols. The data represent means±SEM from three independent experiments.
Next, the interaction of 1-O-octadecyl-2-O-methyl-glycero-3-phosphocholine administration (“CHEM”) and androgen deprivation (“AD”) was investigated. LNCaP cells were deprived of androgen for two days by charcoal absorption of serum according to established procedures well known in the art. CHEM was added in a final concentration of 5 μM and 10 μM, respectively.
(§6) Apoptosis was measured using the Apo-ONE™ Homogenous Caspase-3/7 Assay as described above and expressed as relative fluorescence units (RFLU). The percentage of apoptotic cells was determined via annexin V-PE/7-AAD staining as described above. The caspase-317 assay and annexin staining were performed 22 hours after CHEM treatment.

[1] = system: LNCaP androgen-sensitive human prostate adenocarcinoma cells; test: Apo-ONE Homogenous Caspase-3/7 Assay in LNCaP cells; format: cell-based; settings: AD + R1881, no CHEM
Protocol: FIG. 1. Depicts the in vitro effects of 1-O-octadecyl-2-O-methyl-glycero-3-phosphocholine (final concentration 10 μM), (ionizing) radiation (absorbed dose of 5 Gray units; indicated as “RT”), and a combination thereof on programmed cell death (apoptosis) and the survival rate of LNCaP androgen-sensitive human prostate adenocarcinoma cells. Apoptosis was determined using the Apo-ONE™ Homogenous Caspase-317 Assay, Promega, Inc., Madison, Wis., USA according to the manufacturers instructions. The percentage of living cancer cells was estimated by means of trypan blue dye exclusion as described (Freshney, R. I. (1994) Culture of Animal Cells: A Manual of Basic Technique. 3rd Ed. Wiley-Liss. New York. USA). The cells were exposed to radiation six hours after (FIG. 1A), concomitantly with (FIG. 1B), or six hours before administration of 1-O-octadecyl-2-O-methyl-glycero-3-phospho-choline (FIG. 1C). The caspase assay was performed 12 hours after exposure to radiation. The respective data shown represent the average of two independent experiments.
First, the in vitro effects of 1-O-octadecyl-2-O-methyl-glycero-3-phosphocholine, (ionizing) radiation, and a combination thereof on programmed cell death (apoptosis) and the survival rate of LNCaP androgen-sensitive human prostate adenocarcinoma cells were measured. The LNCaP cell line was established from a metastatic lesion of the adenocarcinoma. The cells were treated with a final concentration of 10 μM 1-O-octadecyl-2-O-methyl-glycero-3-phosphocholine and (ionizing) radiation corresponding to an absorbed dose of 5 Gray units.
Apoptosis was determined using the Apo-ONE™ Homogenous Caspase-3/7 Assay, Promega, Inc., Madison, VV1, USA according to the manufacturers instructions. The percentage of living tumor cells was estimated by means of trypan blue dye exclusion as described (Freshney, R. I. (1994) Culture of Animal Cells: A Manual of Basic Technique. 3rd Ed. Wiley-Liss. New York. USA)
The cells were exposed to radiation six hours after (FIG. 1A), concomitantly with (FIG. 1B), or six hours before administration of 1-O-octadecyl-2-O-methyl-glycero-3-phospho-choline (FIG. 1C). The caspase assay was performed 12 hours after exposure to radiation. The respective data shown represent the average of two independent experiments.
as §5, §6

[2] = system: brain tumor cell lines U87MG, A172, LN-18, LN-229, U118MG, and T98G; test: WST-1 proliferation assay, summaries over the brain tumor cell line panel; format: cell-based, human; settings: together with AP-121; all three cell lines (U87MG, A172, U118MG)
Protocol: As a biological test panel, we selected the brain tumor cell lines U87MG, A172, LN-18, LN-229, U118MG, and T98G that have different levels of mutations in p53 and PTEN as well as FAS receptor expression:
as §2, with “If the OD650-OD450 values were above 0.5, the remainder of the plate was used for incubation with AP-121, other pharmacological agents or solvent control for 96 hours.” left out
as §3, with “respectively. […]” for “respectively.”

| Compound | IC50 (U87MG) [µM] | IC50 (T98G) [µM] | IC50 (LN-229) [µM] | IC50 (A172) [µM] | IC50 (LN-18) [µM] | IC50 (U118MG) [µM] | also measured |
| --- | --- | --- | --- | --- | --- | --- | --- |
| COc1cccc2c1C(=O)c1c(O)c3c(c(O)c1C2=O)C[C@@](O)(C(=O)CO)C[C@@H]3O[C@H]1C[C@H](N)[C@H](O)[C@H](C)O1 [ADR, Adriamycin] | 0.11 | 0.17 | 0.13 | 0.07 | 0.09 | 0.12 | – |
| CC[C@@]1(O)C(=O)OCc2c1cc1n(c2=O)Cc2cc3ccccc3nc2-1 [CPT, Camptothecin] | 0.04 | 0.02 | 0.02 | 0.02 | 0.04 | 0.004 | – |
| [NH2][Pt]([NH2])([Cl])[Cl] [DDP, cisplatinum, reference compound] | – | – | – | – | – | – | IC50 (HCC827 (FAS positive)): 3.4 µM and 3.5 µM; IC50 (NCI-H460 (FAS positive)): 1.3 µM |
| Nc1ccn([C@@H]2O[C@H](CO)[C@@H](O)C2(F)F)c(=O)n1 [GMZ, gemicitabin, reference compound] | – | – | – | – | – | – | IC50 (NCI-H460 (FAS positive)): 0.003 µM and 0.006 µM |
| CCCCCCCCCCCCCCCCOP(=O)([O-])OCC[N+](C)(C)C [HePC] | – | – | – | – | – | – | EC50 (A431): 17.3 ± 3 µM; EC50 (HeLa): 8.17 ± 0.4 µM |
| CCCCCCCCCCCCCCCCCCOP(=O)([O-])OC1CC[N+](C)(C)CC1 [Perifosine] | – | – | – | – | – | – | EC50 (A431): 23.2 ± 2.7 µM; EC50 (HeLa): 9.27 ± 1.8 µM |
| C[C@]1(O)CC[C@H]2[C@@H]3CCC4=CC(=O)CCC4=C3C=C[C@@]21C [R1881, reference compound] | – | – | – | – | – | – | % Annexin V-PE pos. cells (LNCaP cells): 7.0%; Caspase-3/7 activity (RFLU) [1]: 130 RFLU |
| Cn1nnc2c(C(N)=O)ncn2c1=O [TMZ, Temozolomide] | 425 | 608 | 278 | 38.3 | 554 | 382 | effect of combination [2]: strong synergistic effect (a CI of <0.3 indicates a strong synergistic effect) |
| C#Cc1cccc(Nc2ncnc3cc(OCCOC)c(OCCOC)cc23)c1 [Tarceva] | 5.9 | 14.4 | 3.9 | 18.8 | 20 | 18.8 | – |

Source: US8324188B2, “Combinations of ET-18-O-CH3and anti-cancer agents for the treatment of cancer” (priority 2006, dated 2012)
